Reference: ChEMBL document CHEMBL1201862, “PubChem BioAssay data set” (2004)
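Interpolation was linear, between the two tested concentrations surrounding the appropriate level; five concentrations were tested over 48 hours in 96-well plates. At the GI50, growth is halved.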 The source made the active and inactive calls. No stated cut-off is given here; in the data, active = GI50 up to about 1.1 µM and inactive = higher.

What was measured:
Experiment in all cases: DTP human tumour cell line panel, 48 h
SNB-75 = test system: SNB-75
A498 = test system: A498
OVCAR-5 = test system: OVCAR-5
ACHN = test system: ACHN
DU-145 = test system: DU-145
K562 = test system: K562
PC-3 = test system: PC-3
RPMI-8226 = test system: RPMI-8226
SF-268 = test system: SF-268
OVCAR-8 = test system: OVCAR-8
LOX IMVI = test system: LOX IMVI
HT-29 = test system: HT-29
HCT-15 = test system: HCT-15
UACC-257 = test system: UACC-257
MCF7 = test system: MCF7
NCI-H522 = test system: NCI-H522
Malme-3M = test system: Malme-3M
MDA-MB-231 = test system: MDA-MB-231
Hs-578T = test system: Hs-578T
UACC-62 = test system: UACC-62

Row | SMILES | GI50 (SNB-75) | GI50 (A498) | GI50 (OVCAR-5) | GI50 (ACHN) | GI50 (DU-145) | GI50 (K562) | GI50 (PC-3) | GI50 (RPMI-8226) | GI50 (SF-268) | GI50 (OVCAR-8) | GI50 (LOX IMVI) | GI50 (HT-29) | GI50 (HCT-15) | GI50 (UACC-257) | GI50 (MCF7) | GI50 (NCI-H522) | GI50 (Malme-3M) | GI50 (MDA-MB-231) | GI50 (Hs-578T) | GI50 (UACC-62)
1 | Cc1ccc([N+](=O)[O-])cc1S(=O)(=O)Nc1ccc(C2=NN(C(=O)c3ccccc3)C(c3ccccc3O)C2)cc1 (stereo not drawn) | 17.1 µM (inactive) | 12.9 µM (inactive) | 19.7 µM (inactive) | 15.7 µM (inactive) | 20.2 µM (inactive) | 15.3 µM (inactive) | 13.2 µM (inactive) | 11.5 µM (inactive) | 12.8 µM (inactive) | 13.9 µM (inactive) | 18.3 µM (inactive) | 17.7 µM (inactive) | 13.2 µM | 17.3 µM (inactive) | 13.4 µM (inactive) | 12.6 µM (inactive) | 12.6 µM (inactive) | 15.7 µM (inactive) | 22.8 µM (inactive) | 
2 | CCOC(=O)CN1C(=O)NC(C)(c2ccccc2)C1=O (stereo not drawn) | > 100 µM (inactive) | > 100 µM (inactive) | > 100 µM (inactive) | > 100 µM (inactive) | > 100 µM (inactive) | > 100 µM (inactive) | > 100 µM (inactive) | > 100 µM (inactive) | > 100 µM (inactive) | > 100 µM (inactive) | > 100 µM (inactive) | > 100 µM (inactive) | > 100 µM | > 100 µM (inactive) | > 100 µM (inactive) | > 100 µM (inactive) |  | > 100 µM (inactive) | > 100 µM (inactive) | > 100 µM (inactive)
3 | CCCC1(NC(=O)C(F)(F)F)CC(OC)OC2COC(c3ccccc3)OC21 (stereo not drawn) | > 100 µM (inactive) | > 100 µM (inactive) | > 100 µM (inactive) | 49.3 µM (inactive) | 79.3 µM (inactive) | 35.3 µM (inactive) | 32 µM (inactive) | > 10 µM (inactive) | > 100 µM (inactive) | 51.1 µM (inactive) | 64.9 µM (inactive) |  | 55.7 µM | 63.1 µM (inactive) | 30 µM (inactive) | 31.5 µM (inactive) | 44.7 µM (inactive) | 95.1 µM (inactive) | > 100 µM (inactive) | 55.7 µM (inactive)
4 | Cn1c2ccccc2n2c3ncccc3/c(=N/CCCC(=O)O)c(C#N)c12 | > 100 µM (inactive) | > 100 µM (inactive) | > 100 µM (inactive) | > 100 µM (inactive) | > 100 µM (inactive) | > 100 µM (inactive) | > 100 µM (inactive) | > 100 µM (inactive) | > 100 µM (inactive) | > 100 µM (inactive) | > 100 µM (inactive) | > 100 µM (inactive) | > 100 µM |  | > 100 µM (inactive) | > 100 µM (inactive) | > 100 µM (inactive) | > 100 µM (inactive) | > 100 µM (inactive) | > 100 µM (inactive)
5 | COC(=O)c1sc(=S)sc1SCc1ccc(CSc2sc(=S)sc2C(=O)OC)cc1 | > 100 µM (inactive) | > 100 µM (inactive) | > 100 µM (inactive) | > 100 µM (inactive) | > 100 µM (inactive) | > 100 µM (inactive) | > 100 µM (inactive) |  | > 100 µM (inactive) | > 100 µM (inactive) | > 100 µM (inactive) | > 100 µM (inactive) | > 100 µM | > 100 µM (inactive) | > 100 µM (inactive) | > 100 µM (inactive) | > 100 µM (inactive) | > 100 µM (inactive) | > 100 µM (inactive) | > 100 µM (inactive)
6 | CCNC(=S)N/N=C/c1cc([N+](=O)[O-])ccc1O | 52 µM (inactive) | 13.2 µM (inactive) | > 100 µM (inactive) | 25.8 µM (inactive) | 83.4 µM (inactive) | 20.6 µM (inactive) | 28.3 µM (inactive) |  | 24.3 µM (inactive) | 18 µM (inactive) | 15.7 µM (inactive) | 41.8 µM (inactive) | 11.6 µM | 24.6 µM (inactive) | 0.307 µM (active) | 21.5 µM (inactive) | 26.5 µM (inactive) | 33 µM (inactive) | 70.5 µM (inactive) | 17.5 µM (inactive)
7 | COc1cc(S(=O)(=O)Nc2nc(-c3ccc(N4C(=O)/C(=C\c5cccs5)N=C4c4ccccc4)cc3)cs2)ccc1Cl | 51.4 µM (inactive) | > 100 µM (inactive) | > 100 µM (inactive) | > 100 µM (inactive) | > 100 µM (inactive) | 64.9 µM (inactive) | 66.8 µM (inactive) |  | 18.7 µM (inactive) | 46 µM (inactive) | 32.1 µM (inactive) | > 100 µM (inactive) | > 100 µM | 71.3 µM (inactive) | 40 µM (inactive) | 29.4 µM (inactive) | 23.6 µM (inactive) | 29.8 µM (inactive) | 24 µM (inactive) | 25.3 µM (inactive)
